From patent publication US20130011376A1, “Methods for Enhancing Natural Killer Cell Proliferation and Activity” (GAMIDA CELL LTD., priority 2009, published 2013) come the findings set out here.

The assay deals with T-cell depleted (CD3 or CD3/CD19 depleted) peripheral blood NK cell populations. In words: CD62L expression on T-cell depleted peripheral blood NK cell cultures (FACS). Type of assay: cell-based, human. The note with it: 2.5 and 5.0 mM nicotinamide, after 7, 14 and 21 days in culture. How it is done:
For depletion procedure, total nuclear cells from umbilical cord blood (CB), bone marrow (BM) or peripheral blood (PB) cells were layered on a Ficoll-Hypaque gradient (1.077 g/mL; Sigma), and centrifuged at 800×g for 30 minutes for separation of the mononuclear cells. The cells in the interface layer were collected and washed three times in phosphate-buffered saline (PBS) (Biological Industries, Israel) containing 0.5% HSA. Optionally, cells are not separated on the Ficoll-Hypaque gradient but washed three times in phosphate-buffered saline (PBS) (Biological Industries) containing 0.5% HSA (“total mononuclear fraction”). […] After negative depletion the cells were counted and characterized by FACS analysis.
3. […] To estimate number of cells in culture, cell samples were counted following staining with trypan blue. […]
The cells were washed with a PBS solution containing 1% BSA, and stained (at 4° C. for 30 min) with fluorescein isothiocyanate (FITC)- or phycoerythrin (PE)-conjugated antibodies or allophycocyanin (APC). The cells were then washed in the above buffer and analyzed using a FACScalibur® flow cytometer (Becton Dickinson, San Jose, Calif., USA). […] Emission of 10^4 cells was measured using logarithmic amplification, and analyzed using the CellQuest software (Becton Dickinson). […]

Consider `NC(=O)c1cccnc1` [nicotinamide], for which the “CD62L-positive cells among the NK cells” value is “increased percentage”.
